Assays:
[1] = Plasma protein binding (equilibrium dialysis), human plasma; format: in vitro ADME; conditions: 1 μg/mL in plasma, dialysis vs phosphate buffer pH 7.4 overnight at 37° C., read-out: Plasma Protein Binding % Bound Human (converted)
Protocol: (§1) Nitrone compounds of this invention were individually dissolved in DMSO to make a stock solution of 1 mg/mL. The compound was spiked into plasma to achieve a final concentration of 1 μg/mL. Spiked plasma and phosphate buffer (0.1M, pH 7.4), 200 μl each, were added to the opposite sides of the membrane in a 96-well equilibrium dialyzer. The dialyzer plate was then covered and equilibrated overnight at 37° C. on an orbital shaker. Aliquots were taken from the plasma and the buffer compartments and prepared by adding blank plasma to samples from the buffer compartments and drug-free phosphate buffer to samples from the plasma compartments to eliminate the matrix effects. The samples were extracted using protein precipitation procedure by adding CH3CN. The samples were analyzed using a LC/MS/MS method. The percentage of free and bound nitrone compound were calculated according to the following formula:
(§2) %Free=[Free Drug/Total Drug]*100=[(Peak Area)buffer/(Peak Area)serum]*100%Bound=100%Free

[2] = Plasma protein binding (equilibrium dialysis), rat plasma; format: in vitro ADME; conditions: 1 μg/mL in plasma, dialysis vs phosphate buffer pH 7.4 overnight at 37° C., read-out: Plasma Protein Binding % Bound Rat (converted)
Protocol: as §1, §2

CCI rats = experiment: Mechanical allodynia in mononeuropathic pain model (chronic constrictive injury, CCI, Bennett model); format: in vivo, SD rats; conditions: for PWT ipsilateral hind paw (von Frey): 50 mg/kg p.o. single dose, mean ± SEM; for anti-allodynic effect on ipsilateral hind paw vs vehicle (in words): single dose 50 mg/kg, p.o.
Description: Adult male SD rats weighing 250-300 gm (Charles River Laboratories, San Diego, Calif.) were used. The animal room was lighted artificially at a 12-hr light-dark cycle (7:00 A.M. to 7:00 P.M) with water and food supply ad libitum. Animals were allocated randomly into groups. Seven days before establishing the mononeuropathic pain disease model, rats were trained on a metal mesh floor, covered with a plastic box (10×10×18 cm) 1-2 hr per day to habituate. During the habituating phase, non-painful tactile stimulation on the plantar surface of each hind paw was induced by a set of calibrated von Frey filaments, through the mesh floor, as described in example 2.
Following the 7-day training phase, the animals were anesthetized by i.p. injection of sodium pentobarbital (65 mg/kg, Abbott Lab, Chicago, Ill.). Under aseptic procedures, the skin of the left thigh was cut open for ˜2 cm. Mid-thigh level of the common sciatic nerve was exposed after blunt separation of the muscles. Two 4-0 silk and one 4-0 chromic gut sutures (both from Ethicon, Somerville, N.J.) were loosely ligated around the nerve, with a 1-1.5 mm interval between each of them. Skin wound was then close with wound clips. The right side (i.e., the contralateral side) was not surgically injured. After recovery from surgery, rats showing post-surgery neurological deficits or poor grooming were excluded from the experiments. This surgical procedure (i.e., chronic constrictive injury, CCI, or Bennett model) to establish mononeuropathic pain disease model has been described elsewhere (Bennett, G. J. and Xie, Y. K.: A peripheral mononeuropathy in rat that produces disorders of pain sensation like those seen in man. Pain, 33: 87-107, 1988).
On days 1, 3, 4, 7, 9, 11, and 14 after surgery, animals were tested for mechanical allodynia with von Frey filaments as described previously. On or around post-surgical day 14, the ipsilateral hind paw, felt to 5 grams, an indication of allodynia began to manifest mechanical allodynia (i.e., amplified response to non-painful tactile stimulation by von Frey filaments). The contralateral hind paws remained above the 5-gram level (i.e., no allodynia).
After manifestation of this allodynia, Compound 62 (50 mg/kg, p.o.), Compound 63 (50 mg/kg, p.o.), Compound 66 (50 mg/kg, p.o.), Compound 23 (50 mg/kg, p.o.), 4-hydroxy-tempol (TEMPOL, 50 mg/kg, p.o.), or piroxicam (a COX1 inhibitor, 50 mg/kg, p.o.) were administered to randomly-assigned animals. Changes of mechanical allodynia in the ipsilateral hind paw were recorded at several time points over the course of up to 24 hr.

[3] = Microsomal stability in rat liver microsomes; format: in vitro ADME; conditions: rat liver microsomes 0.5 mg/ml, 1 mM NADPH, ~500 ng/ml compound, 37° C.
Protocol: Frozen Sprague-Dawley rat liver microsomes (RLM) were thawed on ice and gently mixed before use. The final reaction mixture consisted of a nitrone compound of this invention (at ˜500 ng/ml), 1 mM NADPH, and 0.5 mg/ml of RLM protein in 0.1 M PBS (pH7.4), with organic solvent concentration not exceeding 1% (v/v). Per set of incubations, a positive control compound was included. The mixture was first pre-incubated 3 to 5 minutes at 37° C. without NADPH, and the reaction was then initialized by the addition of NADPH and incubated at 37° C. for up to 30 minutes. An aliquot of the reaction mixture was sampled at the initiation of the reaction and at designated time after reaction started. The drawn samples were quenched with acetonitrile, diluted with mobile phase to ensure the detection of test article in the linear range, and analyzed by LC/MS/MS. Half-life or percentage of remaining nitrone compound was calculated using standard methods. A similar method, or a slight variation of it, was used to test the stability of nitrones in human liver microsomes (HLM).

[4] = Microsomal stability in human liver microsomes; format: in vitro ADME; conditions: NADPH, 37° C.
Method in brief: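 Compound (~500 ng/ml) incubated at 37°C for up to 30 min with 0.5 mg/ml microsomal protein and 1 mM NADPH in 0.1 M PBS pH7.4, after 3–5 min preincubation without NADPH. Sprague-Dawley rat or human microsomes; acetonitrile-quenched timepoints analysed by LC/MS/MS for half-life or percent remaining.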

[5] = post-dosing time −15 min (pre-dose)

Compound	fraction unbound at 1 μg/mL [1]	fraction unbound at 1 μg/mL [2]	PWT ipsilateral hind paw (von Frey) (CCI rats; post-dosing time 30 min)	PWT ipsilateral hind paw (von Frey) (CCI rats; post-dosing time 60 min)	PWT ipsilateral hind paw (von Frey) (CCI rats; post-dosing time 300 min)	PWT ipsilateral hind paw (von Frey) (CCI rats; post-dosing time 1440 min)	PWT ipsilateral hind paw (von Frey) (CCI rats; [5])	anti-allodynic effect on ipsilateral hind paw vs vehicle (in words) (CCI rats)	% of Nitrone Remaining at 30 min (Rat) [3]	PWT ipsilateral hind paw (von Frey) (CCI rats; post-dosing time 5 min)	PWT ipsilateral hind paw (von Frey) (CCI rats; post-dosing time 120 min)	PWT ipsilateral hind paw (von Frey) (CCI rats; post-dosing time 240 min)	PWT ipsilateral hind paw (von Frey) (CCI rats; post-dosing time 360 min)	% of Nitrone Remaining at 30 min (Human) [4]
CC(C)(C)/[N+]([O-])=C/c1ccc(S(N)(=O)=O)cc1 [Compound 20, N-(tert-Butyl)-C-[4-(sulfamoyl)phenyl]nitrone]	1	0.976												
CC(C)(C)/[N+]([O-])=C/c1ccc(S(=O)(=O)N2CCOCC2)cc1 [Compound 23, N-(tert-Butyl)-C-[4-(morpholine-4-sulfonyl)phenyl]nitrone]	0.8	0.782	7.67 ± 0.80 gm	8.17 ± 1.52 gm	4.43 ± 1.35 gm	4.67 ± 0.84 gm	2.43 ± 0.54 gm	statistically significant anti-allodynic effects						
CC(C)(C)/[N+]([O-])=C/c1ccc(S(=O)(=O)Nc2cccnc2)cc1 [Compound 26, N-(tert-Butyl)-C-[4-(pyridin-3-ylsulfamoyl)phenyl]nitrone]	0.238	0.01												
CC(C)(C)/[N+]([O-])=C/c1ccc(S(C)(=O)=O)cc1 [Compound 62, N-tert-Butyl-C-[4-(methanesulfonyl)phenyl]nitrone]	0.826	0.999				3.43 ± 1.02 gm	3.17 ± 1.10 gm	rapid onset but short-lasting anti-allodynic effect	100%	2.86 ± 0.94 gm	16.71 ± 3.44 gm	15.14 ± 3.90 gm	5.46 ± 1.46 gm	100%
CC(C)(C)/[N+]([O-])=C/c1ccc(S(C)(=O)=O)cc1S(C)(=O)=O [Compound 63, N-tert-Butyl-C-(2,4-bis-methanesulfonylphenyl)nitrone]	0.867	0.741	18.4 ± 10.42 gm	18.8 ± 11.29 gm	5.20 ± 1.63 gm	3.60 ± 1.30 gm	3.88 ± 0.97 gm	produced anti-allodynic effects on ipsilateral hind paws	97%					99%
CCS(=O)(=O)c1ccc(/C=[N+](\[O-])C(C)(C)C)c(S(=O)(=O)CC)c1 [Compound 64, N-tert-Butyl-C-(2,4-bis-ethanesulfonylphenyl)nitrone]	0.697	0.811							100%					100%
CC(C)(C)/[N+]([O-])=C/c1ccccc1S(C)(=O)=O [Compound 66, N-tert-Butyl-C-(2-methanesulfonylphenyl)nitrone]	0.726	0.898	5.33 ± 0.42 gm	4.12 ± 0.91 gm	5.33 ± 1.12 gm	1.57 ± 0.23 gm	1.97 ± 0.84 gm	no significant anti-allodynic effect						

Reference: patent publication US20100168112A1, “2-Substituted and 4-substituted aryl nitrone compounds” (RENOVIS, INC., priority 2004, published 2010)
